Where two headings read alike, the source gives them in different places.
Legend:
PC12 cells [1] = type: cell-based, rat
PC12 cells [2] = assay: Neuroprotective action against β-amyloid, viable cell count / survival rate by WST-8 method; type: cell-based, rat; parameters: key to Neuroprotective action: +, P < 0.05 when compared with the no neuropeptide-added group; details: for relationship between concentration and neuroprotective action against β-amyloid: neuropeptides at various concentrations
Protocol: An experiment was performed similarly to Example 5, and then the neuroprotective action against cell death by β-amyloid of the following PACAP-related neuropeptides (peptides 1, 2, 4, 5, 7, 8, 15, 16, 17, 19, 21, 26, 27, 28, 29, 30, 31, 32, 33, 34, 35, 36, 37, 38 and 39) and VIP-related neuropeptides (peptides 3, 9, 10, 11, 12, 13, 14, 18, 20, 22, 23, 24 and 25) was confirmed. Specifically, amyloid (50 μM) and each of the various PACAP-related neuropeptides and VIP-related neuropeptides were added to the cultured PC12 cells. The number of […] calculated by the WST-8 method, so that comparison and examination was performed for the neuroprotective action of these various peptides against amyloid. If the neuropeptides had neuroprotective action, a clear difference in viable cell count can be observed between cases in which neuropeptides were added and cases in which neuropeptides were not added. In PC12 cells added with each of the various neuropeptides, a case wherein a higher cell survival rate (P<0.05) was observed compared with groups in which neuropeptides had not been added, was determined as having neuroprotective action. The results are shown in Table 1 and Table 2. β-amyloid was added to PC12 cells that had been cultured similarly to Example 5. At this time, neuropeptides PACAP27, VIP and humanin, and a cell-permeable cAMP derivative were allowed to respectively co-exist, so that the effect of these neuropeptides against cell death by β-amyloid was confirmed. Cell death was examined by evaluating cell count using the WST-8 method, and then by calculating cell survival rate. […] In the presence of β-amyloid, approximately 70% of the cells died. […] The neuroprotective action of humanin, a recently found human-derived neuroprotective substance (Proc Natl Acad Sci USA (2001) 98 (11) 6336-6341), was also examined. […] At this time, neuropeptides at various concentrations were allowed to co-exist, so that the relationship between the neuroprotective action and the concentration was investigated. Cells were calculated by the WST-8 method, and then the extent to which cell death by β-amyloid could be attenuated was expressed numerically.

caspase-3 = assay: Caspase-3 activating action of β-amyloid and its suppression (Ac-DEVD-AMC substrate); type: cell-based, rat; details: 10^−5 M β-amyloid; PACAP 10^−9 M; FIG. 7
Protocol: PC12 cells that had been cultured almost similarly to Example 4 were cultured in a 24-well plate (2×10^5 cells/well). 10^−5 M β-amyloid was added to the plate. At this time, cAMP derivative (10^−4 M) and neuropeptide PACAP (10^−9 M) were added respectively, and then the action of activating caspase-3, an apoptosis-related enzyme, was examined. The caspase-3 activating action was examined using Ac-DEVD-AMC, a caspase-3 specific substrate. […] Further, by the addition of neuropeptide PACAP, an incomplete, approximately 50% suppressive effect was shown. […] Taking into consideration that this suppressive action is not complete, other action mechanisms may also be involved.

PC12 cells [3] = system: PC12 cells

## Pituitary Adenylate Cyclase Activating Polypeptide [PACAP]
PC12 cells [1]; 50 μM abnormal prion (106-126), neuropeptides at various concentrations, FIG. 2
  degree of neuroprotective action against abnormal prion (106-126): even at an extremely low concentrations, PACAP showed a certain degree of neuroprotective action
PC12 cells [2]; β-amyloid, FIG. 6
  neuroprotective action relative to that of VIP: at least 1×10^4 fold
  relationship between concentration and neuroprotective action against β-amyloid: showed neuroprotective action even at an extremely low concentration
PC12 cells [2]; β-amyloid, various concentrations, FIG. 6
  concentration at which the neuroprotective effect was strongest: 10^−9 to 10^−13 M
caspase-3
  suppressive effect on caspase-3 activation by β-amyloid: approximately 50%

## Prion (106-126)
PC12 cells [3]
  cell death (lactate dehydrogenase released to the medium): cell death occurs depending on the concentration

## VIP (HSDAVFTDNYTRLRKQMAVKKYLNSILN) [Peptide 3]
PC12 cells [1]
  degree of neuroprotective action against abnormal prion (106-126): showed neuroprotective action at concentrations higher than that of PACAP
PC12 cells [2]; VIP-related neuropeptide 10^−7 M, amyloid (50 μM), cell survival rate vs no peptide
  Neuroprotective action: +
PC12 cells [2]; co-existing with β-amyloid, PACAP27 10^−9 M, FIG. 5
  neuroprotective action against cell death by β-amyloid (cell survival rate): showed neuroprotective action against β-amyloid although the effect was weaker than that of PACAP27
PC12 cells [2]; β-amyloid, FIG. 6
  relationship between concentration and neuroprotective action against β-amyloid: showed strong neuroprotective action at relatively high concentrations

— patent publication US20040132648A1, “Remedies and/or preventives for conformational diseases” (priority 2001, published 2004)
